Test results taken from publication PMC8355692, “Antimelanoma activities of chimeric thiazole–androstenone derivatives” (Royal Society Open Science, 2021).

Tests used:
Assay type in all cases: cell-based
SK-MEL-2 = test: NCI DTP 60 cell line five-concentration test, melanoma panel; details: for LC50 (50% lethal concentration) / GI50: Homo sapiens; for LC50 (50% lethal concentration): SK-MEL-2, read-out: LC50 (50% lethal concentration); for GI50 / TGI (total growth inhibition): SK-MEL-2 melanoma cell line
Procedure: (§1) In our effort to develop new methodologies to synthesize bioactive compounds [11–14], we have synthesized a number of thiazole and thiazolo-androstenone derivatives. We submitted 50 of the synthesized thiazole–androstenone derivatives to the National Cancer Institute (NCI) Development Therapeutics Program (DTP) to test against 60 cancer cell lines (https://dtp.cancer.gov/). These compounds were tested for cytotoxicity at a single dose of 10 µM. […] Eight of these chimeric compounds (figure 2) were selected for further testing at five different concentrations to determine 50% growth inhibition (GI50), total growth inhibition (TGI) and 50% lethal concentration (LC50) values. […] Overall, amino-thiazole derivatives (table 1, 1–7) were more toxic to melanoma cell lines than phenyl thiazole derivatives (8). Fluoro and oxy (hydroxy and methoxy) derivatives were the potent growth inhibitors of the tested cancer cell lines. LOX IMVI cell line was the most susceptible among all the melanoma cell lines used against the tested compounds (table 1). […] Phenyl ethyl derivative (1) inhibited the growth of all the cell lines except SK-MEL-2. […] 2,4-Dimethyl substituted derivative (7) is a potent growth inhibitor of all the tested cell lines of the melanoma panel.

LOX IMVI = test: as above; details: for LC50 (50% lethal concentration) / GI50: Homo sapiens; for LC50 (50% lethal concentration): LOX IMVI, read-out: LC50 (50% lethal concentration); for GI50 / TGI (total growth inhibition): LOX IMVI melanoma cell line
Procedure: as §1

UACC-62 = test: as above; details: for LC50 (50% lethal concentration): UACC-62, read-out: LC50 (50% lethal concentration)
Procedure: as §1

SK-MEL-28 = test: as above; details: for CC50: SK-MEL-28, read-out: LC50 (50% lethal concentration)
Procedure: as §1

MALME-3M = test: as above; details: for CC50 / GI50: Homo sapiens; for CC50: Malme-3M, read-out: LC50 (50% lethal concentration); for GI50 / TGI (total growth inhibition): MALME-3M melanoma cell line
Procedure: as §1

M14 = test: as above; details: for CC50: M14, read-out: LC50 (50% lethal concentration)
Procedure: as §1

SK-MEL-5 = test: as above; details: for CC50 / GI50: Homo sapiens; for CC50: SK-MEL-5, read-out: LC50 (50% lethal concentration); for GI50 / TGI (total growth inhibition): SK-MEL-5 melanoma cell line
Procedure: as §1

MDA-MB-435 = test: as above; details: for CC50 / GI50: Homo sapiens; for CC50: MDA-MB-435, read-out: LC50 (50% lethal concentration); for GI50 / TGI (total growth inhibition): MDA-MB-435 melanoma cell line
Procedure: as §1

UACC-257 = test: as above; details: for CC50 / GI50: Homo sapiens; for CC50: UACC-257, read-out: LC50 (50% lethal concentration); for GI50 / TGI (total growth inhibition): UACC-257 melanoma cell line
Procedure: as §1

[1] = tested on: caspase-activated DNase (CAD); test: CAD immunocytochemistry combined with TUNEL (caspase-mediated apoptosis); details: melanoma cells, 5 or 10 µM, 24 h
Description: (§2) The elevation was dose-dependent.
(§3) Figure 4. […] (c) Representative images. […] Mean ± s.e.m., n = 4 per group.
(§4) Figure 5. […] (a) Representative images of TUNEL colocalized or not colocalized with each of the three protein markers used in this study. […] Mean ± s.e.m., n = 4 per group.
(§5) Thus, to determine the mechanism of action of our compounds on melanoma cells in vitro, we applied the fluorescent TUNEL assay combined with quantitative ICC for three markers: HO1 for oxidative cell injury, CAD for caspase-mediated apoptosis and EndoG for caspase-independent apoptosis. […] However, none of the compounds or dacarbazine induced apoptotic endonucleases. This is not surprising because apoptotic endonucleases are commonly present in the cell in sufficient amounts to be able to destroy DNA upon cell death without induction (which most likely would not be possible in a dead cell).

endonuclease G (EndoG) = test: EndoG immunocytochemistry combined with TUNEL (caspase-independent apoptosis); details: melanoma cells, 5 or 10 µM, 24 h
Description: as §2, §3, §4, §5

heme oxygenase-1 (HO1) = test: HO1 immunocytochemistry combined with TUNEL (oxidative injury); details: melanoma cells, 24 h; for HO1 mean intensity (oxidative injury): 10 µM; for HO1 staining in TUNEL-positive cells (oxidative injury): 5 or 10 µM
Description: as §2, §3, §4, §5

HFF-1 cell line = test: Toxicity for normal human foreskin fibroblast cell line; details: normal human foreskin fibroblast HFF-1; for IC50: read-out: IC50 against HFF1 cell line
Description: To assess the potential use of lead compounds as anti-melanoma agents, we tested their toxicity for the normal human foreskin fibroblast (HFF-1) cell line taking into consideration that MM is usually surrounded by the cells of this kind. The effects of some of the potent compounds on this cell line were very encouraging (table 4).

SK-MEL-28 cell line = test: Annexin V flow cytometry apoptosis assay
Procedure: After determining the selective toxicity of potent molecules, we determined their mode of action against the melanoma cell line. Apoptosis or programmed cell death is a physiological process to remove unwanted or damaged mammalian cells. We detected apoptosis mode of cell death by our potent compounds using flow cytometry-based Annexin V assay. Compound 3 caused 23% apoptosis at 6 µM and 54% apoptosis at 12 µM (figure 3). 3-Fluorophenyl derivative (5) was a very potent apoptosis-inducing agent that caused 100% cell death at 12 µM concentration. Dacarbazine, the positive control, caused 22% apoptotic cell death at 200 µM concentration.
Figure 3. Apoptosis measurements using Annexin V flow cytometry assay of compounds 3 and 5 against SK-MEL-28 cell line at 6 and 12 µM concentrations. DMSO and dacarbazine (Daca) are negative and positive controls, respectively. Mean ± s.e.m., n = 3 per group.

[2] = Homo sapiens, UACC-62, UACC-62 melanoma cell line
[3] = Homo sapiens, SK-MEL-28, SK-MEL-28 melanoma cell line
[4] = Homo sapiens, M14, M14 melanoma cell line

Compound | LC50 (50% lethal concentration) (SK-MEL-2) [µM] | GI50 (SK-MEL-2) [µM] | TGI (total growth inhibition) (SK-MEL-2) [µM] | LC50 (50% lethal concentration) (LOX IMVI) [µM] | GI50 (LOX IMVI) [µM] | TGI (total growth inhibition) (LOX IMVI) [µM] | GI50 (UACC-62; [2]) [µM] | LC50 (50% lethal concentration) (UACC-62; Homo sapiens) [µM] | TGI (total growth inhibition) (UACC-62; UACC-62 melanoma cell line) [µM] | GI50 (SK-MEL-28; [3]) [µM] | CC50 (SK-MEL-28; Homo sapiens) [µM] | TGI (total growth inhibition) (SK-MEL-28; SK-MEL-28 melanoma cell line) [µM] | CC50 (MALME-3M) [µM] | GI50 (MALME-3M) [µM] | TGI (total growth inhibition) (MALME-3M) [µM] | GI50 (M14; [4]) [µM] | CC50 (M14; Homo sapiens) [µM] | TGI (total growth inhibition) (M14; M14 melanoma cell line) [µM] | CC50 (SK-MEL-5) [µM] | GI50 (SK-MEL-5) [µM] | also measured
C[C@]12CCc3nc(Nc4cccc(O)c4)sc3C1=CC[C@@H]1[C@@H]2CC[C@]2(C)C(=O)CC[C@@H]12 [Compound 4] | 91.4 | 2.86 | 9.99 | 5.94 | 1.67 | 3.15 | 2.08 | > 100 | 5.25 | ≥ 1.32 | > 100 | 3.31 | > 100 | 1.49 | 3.01 | 2.97 | > 100 | >100 | > 100 | 5.7 | GI50 (SK-MEL-28; SK-MEL-28 melanoma cell line): 1.32 µM; TGI (total growth inhibition) (SK-MEL-5): >100 µM; CC50 (MDA-MB-435): > 100 µM; GI50 (MDA-MB-435): 2.53 µM; TGI (total growth inhibition) (MDA-MB-435): >100 µM; CC50 (UACC-257): > 100 µM; GI50 (UACC-257): 3.69 µM; TGI (total growth inhibition) (UACC-257): >100 µM; CAD mean intensity [1]: No significant induction; colocalization of CAD with TUNEL (caspase-mediated apoptosis) [1]: induced the colocalization of CAD with TUNEL; EndoG mean intensity (endonuclease G (EndoG)): No significant induction; HO1 mean intensity (oxidative injury) (heme oxygenase-1 (HO1)): induced oxidative injury; IC50 (HFF-1 cell line): 8.6 µM
C[C@]12CCc3nc(Nc4ccc(OC(F)(F)F)cc4)sc3C1=CC[C@@H]1[C@@H]2CC[C@]2(C)C(=O)CC[C@@H]12 [Compound 3] | 55.6 | 3 | 11.6 | 5.82 | 1.74 | 3.18 | 3.03 | > 100 | 10.3 | ≥ 1.32 | 49.2 | 7.98 | 84.5 | 3.45 | 16.8 | 3.29 | 46.6 | 8.72 | 41.4 | 2.62 | GI50 (SK-MEL-28; SK-MEL-28 melanoma cell line): 1.88 µM; TGI (total growth inhibition) (SK-MEL-5): 7.41 µM; CC50 (MDA-MB-435): 44.2 µM; GI50 (MDA-MB-435): 2.72 µM; TGI (total growth inhibition) (MDA-MB-435): 10.1 µM; CC50 (UACC-257): > 100 µM; GI50 (UACC-257): 4.89 µM; TGI (total growth inhibition) (UACC-257): 28.8 µM; CAD mean intensity [1]: No significant induction; colocalization of CAD with TUNEL (caspase-mediated apoptosis) [1]: induced the colocalization of CAD with TUNEL; EndoG mean intensity (endonuclease G (EndoG)): No significant induction; HO1 staining in TUNEL-positive cells (oxidative injury) (heme oxygenase-1 (HO1)): strongly induced oxidative injury; apoptosis (SK-MEL-28 cell line; SK-MEL-28, 6 µM): 23%; apoptosis (SK-MEL-28 cell line; SK-MEL-28, 12 µM): 54%; toxicity against HFF1 cells (in words) (HFF-1 cell line): did not show any notable toxicity; IC50 (HFF-1 cell line): > 100 µM
Cc1ccc(Nc2nc3c(s2)C2=CC[C@@H]4[C@H](CC[C@]5(C)C(=O)CC[C@@H]45)[C@@]2(C)CC3)c(C)c1 [Compound 7] | 22.7 | 2.19 | 4.74 | 5.96 | 1.64 | 3.13 | 1.72 | 9.02 | 3.94 | 2.31 | > 100 | 6.08 | > 100 | 1.99 | 5.55 | 1.85 | > 100 | 3.79 | 7.47 | 1.86 | TGI (total growth inhibition) (SK-MEL-5): 3.73 µM; CC50 (MDA-MB-435): > 100 µM; GI50 (MDA-MB-435): 3.02 µM; TGI (total growth inhibition) (MDA-MB-435): >100 µM; CC50 (UACC-257): > 100 µM; GI50 (UACC-257): 3.7 µM; IC50 (HFF-1 cell line): 40 µM
C[C@]12CCc3nc(Nc4ccccc4)sc3C1=CC[C@@H]1[C@@H]2CC[C@]2(C)C(=O)CC[C@@H]12 [Compound 2] | > 100 | 17.1 | 60.8 | 48.1 | 3.22 | 10.8 | < 10 | 89.7 | 29.6 | 20.5 | > 100 | >100 | > 100 | 21.2 | >100 | < 10 | > 100 | 50.9 | 66.2 | 10.2 | GI50 (UACC-62; UACC-62 melanoma cell line): 9.54 µM; GI50 (M14; M14 melanoma cell line): 7.88 µM; TGI (total growth inhibition) (SK-MEL-5): 26.0 µM; CC50 (MDA-MB-435): > 100 µM; GI50 (MDA-MB-435): 3.49 µM; TGI (total growth inhibition) (MDA-MB-435): >100 µM; CC50 (UACC-257): > 100 µM; GI50 (UACC-257): 23.8 µM; TGI (total growth inhibition) (UACC-257): 94.5 µM; IC50 (HFF-1 cell line): 21 µM
C[C@]12CCc3nc(Nc4cccc(F)c4)sc3C1=CC[C@@H]1[C@@H]2CC[C@]2(C)C(=O)CC[C@@H]12 [Compound 5] | 26.7 | 1.86 | 5.19 | 6.16 | 1.67 | 3.21 | 1.54 | 6.31 | 3.12 | ≥ 1.32 | 19.9 | 4.27 | 26.7 | 1.94 | 5.04 | 2.36 | 81.4 | 7.23 | 9.24 | 2.02 | GI50 (SK-MEL-28; SK-MEL-28 melanoma cell line): 1.52 µM; TGI (total growth inhibition) (SK-MEL-5): 4.32 µM; CC50 (MDA-MB-435): > 100 µM; GI50 (MDA-MB-435): 2.74 µM; TGI (total growth inhibition) (MDA-MB-435): 13.1 µM; CC50 (UACC-257): > 100 µM; GI50 (UACC-257): 5.47 µM; TGI (total growth inhibition) (UACC-257): 64 µM; CAD mean intensity [1]: No significant induction; colocalization of CAD with TUNEL (caspase-mediated apoptosis) [1]: induced the colocalization of CAD with TUNEL; EndoG mean intensity (endonuclease G (EndoG)): No significant induction; HO1 mean intensity (oxidative injury) (heme oxygenase-1 (HO1)): induced oxidative injury; HO1 staining in TUNEL-positive cells (oxidative injury) (heme oxygenase-1 (HO1)): strongly induced oxidative injury; apoptosis (SK-MEL-28 cell line; SK-MEL-28, 12 µM): 100%; toxicity against HFF1 cells (in words) (HFF-1 cell line): somewhat toxic; IC50 (HFF-1 cell line): 5.9 µM
